{
  "source": "patent US12472221B2",
  "about": "“Composition for inhibiting osteoclasts containing agastache rugosa extract as active ingredient, and use thereof” (Korea Institute of Oriental Medicine, priority 2019, dated 2025)",
  "key": {"[1]": {"tested_on": "differentiation of bone marrow cell-derived macrophages (BMMs) into osteoclasts", "assay": "Osteoclast differentiation of bone marrow cell-derived macrophages (M-CSF/RANKL, TRAP staining, osteoclast count)", "format": "cell-based, mice", "details": "compared with WEAR at the same concentration", "experimental": "Specifically, bone marrow cells of mice were cultured in α-MEM medium containing M-CSF (60 ng/ml) and 10% FBS for 3 days to obtain bone marrow cell-derived macrophages (BMMs), which were used as osteoclast progenitor cells. To generate osteoclasts, 1×10^4 pieces of the obtained BMMs were placed in per well of a 96-well plate, cultured for 4 days in a medium containing M-CSF (60 ng/ml) and RANKL (50 ng/ml), and the BMM were treated with hot water extract of Agastache rugosa (WEAR; 10, 33, 100, 200 μg/ml) or ethanol extract of Agastache rugosa (EEAR; 10, 33, 100 μg/ml) under the same culture condition. After fixing the cells with 10% formalin, TRAP (Tartrate-resistant acid phosphatase) staining was performed using naphthol AS-MS phosphate and Fast red violet LB salt, and TRAP-positive cells having three or more nuclei (osteoclasts) were counted. Data are presented as mean±standard deviation, and statistical analysis was performed using one-way ANOVA with Dunnett test, **p<0.01.\nIC50 (inhibitory concentration 50), the concentration showing 50% inhibition efficiency, was calculated using PraphPad Prism software.\nSpecifically, WEAR-PO, WEAR-ED, P0-3 kDA Fx, P0-10 kDA Fx, P0-30 kDA Fx, P0-100 kDA Fx, P0-300 kDA Fx […], respectively, and the osteoclast differentiation inhibitory effect was assessed in the same manner as in Example <3-1>."}, "[2]": {"tested_on": "bone marrow cell-derived macrophages (BMMs)", "assay": "Cell viability of osteoclast progenitor cells (CCK-8)", "format": "cell-based, mice", "details": "5 and 10 μg/ml, 2 days", "experimental": "Specifically, 1.2×10^4 pieces of bone marrow cell-derived macrophages (BMMs) were placed in per well of a 96-well plate, and then cultured for 2 days in a medium containing M-CSF (60 ng/ […] ) in which hot water extract of Agastache rugosa extract (WEAR; 5, 10, 20, 33, 100 and 200 μg/ml), ethanol extract of Agastache rugosa (EEAR; 10, 33 and 100 μg/ml) or isoagastachoside (5 and 10 μg/ml) samples were added. Cell viability was determined by measuring absorbance at 450 nm using Cell counting Kit-8 (CCK-8, Dojindo Inc.), percentage of untreated controls and data are presented as mean±standard deviation, and statistical analysis was performed using one-way ANOVA with Dunnett test, **p<0.01."}},
  "data": [
    {"smiles": "COc1ccc(-c2cc(=O)c3c(O)cc(O[C@@H]4O[C@H](CO)[C@@H](O)[C@H](O)[C@H]4OC(C)=O)cc3o2)cc1", "note": "[isoagastachoside]", "values": [
      {"measurement": "inhibitory effect on osteoclast differentiation (in words)", "setting": "[1]; 10 μg/ml", "result": "inhibited osteoclast differentiation very significantly compared to WEAR at the same concentration"},
      {"measurement": "inhibitory effect on osteoclast differentiation (in words)", "setting": "[1]; 5 and 10 μg/ml", "result": "better inhibitory effect on osteoclast differentiation than WEAR at the same concentration"},
      {"measurement": "effect on cell survival", "setting": "[2]", "result": "no effect in cell survival"}
    ]}
  ]
}
